One assay relates to Pseudomonas aeruginosa. Briefly: Broth microdilution MIC (Example 12). In general terms: In broth dilution the organism is exposed to a series of concentrations in liquid medium.
Another assay concerns Klebsiella pneumoniae. Description: Broth microdilution MIC (Example 12).
The test system of assay [1] is B. cepacia. Description: FIC checkerboard assay. The format is cell-based.
For a further assay, the system named is Escherichia coli. Description: Broth microdilution MIC (Example 12).
The subject of another assay is Acinetobacter baumannii. Briefly: Broth microdilution MIC (Example 12).
Assay [2] deals with B. cepacia. Briefly: Broth microdilution MIC (Example 10). The conditions noted are these: initial MIC testing.
Assay [3] relates to B. cenocepacia. Description: FIC checkerboard assay. Type of assay: cell-based. The conditions noted are these: during FIC testing.
Assay [4] has as its system B. cenocepacia. Description: Broth microdilution MIC (Example 10). The conditions noted are these: initial MIC testing; B. cenocepacia isolate 0548 (CIP-R).
The next assay has as its system P. aeruginosa. Briefly: FIC checkerboard assay. The format is cell-based. The conditions noted are these: for MICB / FICB: by checkerboard; for MIC: Pseudomonas aeruginosa, Aztreonam alone (checkerboard with BisEDT), read-out: Drug B MIC; for FICB: Colistin in combination with BisEDT.
A further assay has as its system Burkholderia spp. Description: organism not typed. Type of assay: cell-based.
The test system of a further assay is A. niger. Briefly: Broth microdilution antifungal susceptibility (Example 13). Type of assay: cell-based. The following applies: A. niger ATCC 29508.
The subject of another assay is A. fumigatus. Described as above. Type of assay: cell-based.
In the next assay the test system is A. terreus. The description is as above. Type of assay: cell-based. The conditions noted are these: A. terreus MMX 8229.
A further assay relates to A. flavus. The description is as above. The format is cell-based.
For the next assay, the system named is Haemophilus influenzae. Briefly: Broth microdilution MIC against Haemophilus influenzae clinical isolates. The conditions noted are these: for MIC50 / MIC90: Haemophilus influenzae; for MIC: all evaluated H. influenzae strains, incl. BLNAR, range tested 64-0.06.
The mark [5] stands for this setting: during FIC testing, B. cepacia isolate 0546.

Results on ten compounds are retold here after patent US11464749B2, “Bismuth-thiol compositions and methods of use” (Microbion Corporation, priority 2018, dated 2022).

≈ marks a conversion by molar mass, not a printed value. Like-named read-outs stand apart in the source and are kept apart here.

For the compound `NCC[C@H](O)C(=O)N[C@@H]1C[C@H](N)[C@@H](O[C@H]2O[C@H](CN)[C@@H](O)[C@H](O)[C@H]2O)[C@H](O)[C@H]1O[C@H]1O[C@H](CO)[C@@H](O)[C@H](N)[C@H]1O` [AMK], the MIC against Pseudomonas aeruginosa (P. aeruginosa CDC 230, VIM/OXA) is greater than 64 µg/mL; against Pseudomonas aeruginosa (P. aeruginosa CDC 231, KPC/OXA), 8 µg/mL (≈ 13.7 µM); against Pseudomonas aeruginosa (P. aeruginosa CDC 241, IMP/OXA) it was 32 µg/mL (≈ 54.6 µM); in the assay with Pseudomonas aeruginosa (P. aeruginosa CDC 246, NDM/OXA), greater than 64 µg/mL; in the assay with Pseudomonas aeruginosa (P. aeruginosa CDC 250, NDM/OXA), greater than 64 µg/mL; against Pseudomonas aeruginosa (P. aeruginosa CDC 356, KPC), 2 µg/mL (≈ 3.42 µM). Besides, the MIC was greater than 64 µg/mL with Pseudomonas aeruginosa (P. aeruginosa CDC 439, IMP); greater than 64 µg/mL in the assay on Pseudomonas aeruginosa (P. aeruginosa CDC 444, VIM); 2 µg/mL (≈ 3.42 µM) in the assay on Pseudomonas aeruginosa (P. aeruginosa CDC 457, VIM); 2 µg/mL (≈ 3.42 µM) in the assay with Pseudomonas aeruginosa (P. aeruginosa CDC 516, KPC/AmpC); 16 µg/mL (≈ 27.3 µM) in the assay with Pseudomonas aeruginosa (P. aeruginosa CDC 518, KPC/AmpC); 16 µg/mL (≈ 27.3 µM) against Klebsiella pneumoniae (K. pneumoniae ATCC BAA-1705, ESBL/KPC). Besides, the MIC against Klebsiella pneumoniae (K. pneumoniae ATCC BAA-1705, QC organism (Table 102)) was determined as 16 µg/mL (≈ 27.3 µM); in the assay with Klebsiella pneumoniae (K. pneumoniae CDC 112, KPC), 16 µg/mL (≈ 27.3 µM); against Klebsiella pneumoniae (K. pneumoniae CDC 113, ESBL/KPC) it was 16 µg/mL (≈ 27.3 µM); with Klebsiella pneumoniae (K. pneumoniae CDC 115, ESBL/KPC) it was 0.5 µg/mL (≈ 0.854 µM); with Klebsiella pneumoniae (K. pneumoniae CDC 120, ESBL/KPC), 16 µg/mL (≈ 27.3 µM); with Klebsiella pneumoniae (K. pneumoniae CDC 126, ESBL/KPC), 2 µg/mL (≈ 3.42 µM). The MIC in the assay with Klebsiella pneumoniae (K. pneumoniae CDC 129, ESBL/KPC) was 32 µg/mL (≈ 54.6 µM); in the assay on Klebsiella pneumoniae (K. pneumoniae CDC 135, ESBL/VIM) it was 16 µg/mL (≈ 27.3 µM); against Klebsiella pneumoniae (K. pneumoniae CDC 138, ESBL/NDM) it was greater than 64 µg/mL; against Klebsiella pneumoniae (K. pneumoniae CDC 158, ESBL/NDM/OXA), 2 µg/mL (≈ 3.42 µM); against Klebsiella pneumoniae (K. pneumoniae MMX 9029, ESBL), 0.5 µg/mL (≈ 0.854 µM); in the assay on B. cepacia [1] (setting [5]), 64 µg/mL. The MIC in the assay with B. cepacia [1] (during FIC testing, B. cepacia isolate 1793) is 32 µg/mL; against Escherichia coli (E. coli ATCC 35218, ESBL), 1 µg/mL (≈ 1.71 µM); against Escherichia coli (E. coli ATCC 35218, QC organism (Table 102)) it was 1 µg/mL (≈ 1.71 µM); with Escherichia coli (E. coli ATCC BAA-2471, NDM), 64 µg/mL (≈ 109 µM); with Escherichia coli (E. coli CDC 114, ESBL/KPC), 1 µg/mL (≈ 1.71 µM); against Escherichia coli (E. coli CDC 118, ESBL/NDM), greater than 64 µg/mL. Besides, the MIC against Escherichia coli (E. coli CDC 435, NDM) was greater than 64 µg/mL; in the assay on Escherichia coli (E. coli CDC 451, KPC), 4 µg/mL (≈ 6.83 µM); against Escherichia coli (E. coli CDC 503, ESBL/NDM) it was greater than 64 µg/mL; in the assay on Escherichia coli (E. coli MMX 5745, KPC), 0.5 µg/mL (≈ 0.854 µM); with Escherichia coli (E. coli MMX 5755, ESBL), 16 µg/mL (≈ 27.3 µM); with Escherichia coli (E. coli MMX 5756, ESBL), 64 µg/mL (≈ 109 µM). In addition, the MIC is 1 µg/mL (≈ 1.71 µM) in the assay with Escherichia coli (E. coli MMX 5758, ESBL); greater than 64 µg/mL with Acinetobacter baumannii (A. baumannii CDC 273, ESBL/OXA); 16 µg/mL (≈ 27.3 µM) against Acinetobacter baumannii (A. baumannii CDC 274, ESBL/OXA); greater than 64 µg/mL against Acinetobacter baumannii (A. baumannii CDC 275, ESBL/OXA); 16 µg/mL (≈ 27.3 µM) with Acinetobacter baumannii (A. baumannii CDC 277, ESBL/OXA); 32 µg/mL (≈ 54.6 µM) in the assay on Acinetobacter baumannii (A. baumannii CDC 284, ESBL/OXA). For the same compound, the MIC in the assay with Acinetobacter baumannii (A. baumannii CDC 307, OXA) is greater than 64 µg/mL; against Acinetobacter baumannii (A. baumannii CDC 308, ESBL/OXA), greater than 64 µg/mL; against Acinetobacter baumannii (A. baumannii CDC 311, OXA), greater than 64 µg/mL; in the assay with Acinetobacter baumannii (A. baumannii CDC 312, OXA), 1 µg/mL (≈ 1.71 µM); against Acinetobacter baumannii (A. baumannii CDC 313, ESBL/OXA), 4 µg/mL (≈ 6.83 µM); in the assay on Acinetobacter baumannii (A. baumannii NCTC 13304, OXA) it was 0.5 µg/mL (≈ 0.854 µM). Moreover, the MIC in the assay on B. cepacia [2] (B. cepacia isolate 0546) and in the assay with B. cepacia [2] (B. cepacia isolate 1793) was 64 µg/mL (≈ 109 µM) each time.
Consider `C[C@H]1[C@H](NC(=O)/C(=N\OC(C)(C)C(=O)O)c2csc(N)n2)C(=O)N1S(=O)(=O)O` [AZT], for which the MIC is 32 µg/mL with B. cenocepacia [3] (B. cenocepacia isolate 0813 (CIP-I)), 32 µg/mL with B. cepacia [1] (setting [5]) and 64 µg/mL (≈ 147 µM) in the assay on B. cenocepacia [4].
`C[C@H]1[C@H](NC(=O)/C(=N\OC(C)(C)C(=O)O)c2csc(N)n2)C(=O)N1S(=O)(=O)O` [Aztreonam]: the MIC is 32 µg/mL in the assay with B. cepacia [1] (Burkholderia cepacia, B. cepacia 546, Aztreonam alone (checkerboard with BisEDT), read-out: Drug B MIC); 128 µg/mL with B. cepacia [1] (Burkholderia cepacia, B. cepacia 1793, Aztreonam alone (panel with BisEDT), read-out: Drug B MIC); 32 µg/mL with P. aeruginosa (P. aeruginosa 6322); 64 µg/mL in the assay on P. aeruginosa (P. aeruginosa 6977); 16 µg/mL in the assay on P. aeruginosa (P. aeruginosa 7745); greater than 256 µg/mL in the assay on P. aeruginosa (P. aeruginosa 8798). Further, the MIC in the assay with P. aeruginosa (P. aeruginosa 9108) amounted to 16 µg/mL; in the assay on Burkholderia spp. (read-out: Drug B MIC) it was 16 µg/mL (≈ 36.7 µM). Further, the MICB with P. aeruginosa (P. aeruginosa 7745, Aztreonam MIC in combination with BisEDT) was 16 µg/mL; in the assay with P. aeruginosa (P. aeruginosa 9108, Aztreonam MIC in combination with BisEDT) it was 16 µg/mL.
For the compound `OC(Cn1cncn1)(Cn1cncn1)c1ccc(F)cc1F` [FLU], the MIC2 in the assay with A. niger, with A. fumigatus (A. fumigatus ATCC 204305), against A. fumigatus (A. fumigatus ATCC MYA-3626), with A. fumigatus (A. fumigatus MMX 5934), in the assay on A. fumigatus (A. fumigatus MMX 5938) and with A. fumigatus (A. fumigatus MMX 5939) was greater than 64 µg/mL each time. The MIC2 in the assay on A. terreus, against A. flavus (A. flavus ATCC 22546), with A. flavus (A. flavus ATCC 204304) and against A. flavus (A. flavus MMX 7935) was greater than 64 µg/mL each time.
Regarding `NC[C@H]1O[C@H](O[C@H]2[C@H](O)[C@@H](O[C@H]3O[C@H](CO)[C@@H](O)[C@H](N)[C@H]3O)[C@H](N)C[C@@H]2N)[C@H](N)C[C@@H]1O` [TOB], the MIC with B. cenocepacia [3] (B. cenocepacia isolate 0548 (CIP-R)) came out at 32 µg/mL; in the assay on B. cepacia [1] (setting [5]) it was 32 µg/mL; in the assay with B. cenocepacia [4], 64 µg/mL (≈ 137 µM); in the assay with B. cepacia [2] (B. cepacia isolate 0546) it was 64 µg/mL (≈ 137 µM); in the assay with B. cepacia [2] (B. cepacia isolate 1793), 64 µg/mL (≈ 137 µM); with B. cepacia [2] (B. cepacia isolate 1794), 64 µg/mL (≈ 137 µM).
In the assay on Haemophilus influenzae, `CC[C@H]1OC(=O)[C@H](C)[C@@H](O[C@H]2C[C@@](C)(OC)[C@@H](O)[C@H](C)O2)[C@H](C)[C@@H](O[C@@H]2O[C@H](C)C[C@H](N(C)C)[C@H]2O)[C@](C)(O)C[C@@H](C)CN(C)[C@H](C)[C@@H](O)[C@]1(C)O` [azithromycin, Azithromycin] registered an MIC50 of 2 µg/mL (≈ 2.67 µM) and an MIC90 of 2 µg/mL (≈ 2.67 µM).
`CO/N=C(\C(=O)N[C@@H]1C(=O)N2C(C(=O)O)=C(COC(N)=O)CS[C@H]12)c1ccco1` [cefuroxime, Cefuroxime]: in the assay on Haemophilus influenzae, the MIC50 is 4 µg/mL (≈ 9.43 µM) and the MIC90 is 16 µg/mL (≈ 37.7 µM).
For the compound Colistin, the MICB in the assay with P. aeruginosa (P. aeruginosa 6322, Colistin MIC in combination with BisEDT) amounted to 0.5 µg/mL; with P. aeruginosa (P. aeruginosa 6977, Colistin MIC in combination with BisEDT), 1 µg/mL; in the assay on P. aeruginosa (P. aeruginosa 7745, Colistin MIC in combination with BisEDT) it was 0.5 µg/mL. The FICB was 1 in the assay with P. aeruginosa (P. aeruginosa 6322); 1 with P. aeruginosa (P. aeruginosa 6977); 1 in the assay on P. aeruginosa (P. aeruginosa 7745); 1 in the assay on Burkholderia spp. (B. multivorans 1795, FIC of Colistin in combination with BisEDT, per checkerboard row).
Turning to “bismuth-1,2-ethanedithiol, 2-mercaptopyridine N-oxide [BisEDT/PYR]”, the MIC in the assay on Haemophilus influenzae is less than 0.06 µg/mL.
Compound “bismuth-2,3-butanedithiol, 2-mercaptopyridine N-oxide [BisBDT/PYR]” displayed an MIC against Haemophilus influenzae of less than 0.06 µg/mL.
